Results published in patent US20090042905A1, “TRIAZOLE DERIVATIVES AS LIGANDS OF G-PROTEIN COUPLED RECEPTORS” (AETERNA ZENTARIS GmbH, priority 2007, published 2009).
Where two headings read alike, the source gives them in different places.

Assays:
[1] = test system: male C57BL/6J mice; assay: Fasting-induced feeding behavior (food intake) of mice; assay type: in vivo; details: oral dose 2 μmol per mouse, 30 min before food
Protocol: The effectiveness of selected compounds of the invention on fasting-induced feeding behavior of mice was investigated.
The experiments were performed according to Asakawa A et al. (Asakawa A et al., Gut 2003, 52: 947-952) with the following technical details:
Preparation of compounds of the invention: dissolved in dimethylsulfoxide (DMSO) and then diluted in distilled water (i.e. 0.5, 1 and 10% DMSO for 0.5, 1 and 2 μmol/mouse, respectively);
Preparation of reference substance (positive control) sibutramine: dissolved in distilled water;
Control substance (negative vehicle control): 10% DMSO in distilled water (compounds of the invention); distilled water (sibutramine);
Route of administration: p.o.;
Pretreatment time: 30 min before presenting the food to the animals;
Volume of administration: 0.5 ml/mouse;
Animals: male C57BL/6J mice;
Body weight range: 18.3-21.4 g

[2] = test system: C57BL/6 male mice fed a high-fat diet; assay: Diet-induced obesity (DIO) in mice, subchronic s.c. treatment; assay type: in vivo, mouse; details: for Fat mass / Food efficiency / Lean mass / Σ Fat depots / Body weight gain / Cumulative food intake / Glucose / Insulin: 2 weeks; for Body weight gain / Cumulative food intake: difference day 35 vs day 21; for body weight gain (in words): two weeks of treatment; for Glucose / Insulin: plasma
Protocol: The effectiveness of selected compounds of the invention, i.e. their subchronic effects, on the energy balance of mice rendered obese by a high-fat diet was investigated.
Adult C57BL/6 male mice were fed ad libitum with either chow or a high-fat diet (60% of the calorie content from fat) for 5 weeks.
C57BL/6 mice fed with a high-fat diet readily develop obesity and represent a widely used model for investigating human obesity.
One-third of the dose was injected in the morning and two-third in the evening.
Body weight and food intake were monitored every day during the experiment. Body composition (lean and fat mass) was assessed using dual energy x-ray absorptiometry (DEXA) on day 0, 13 and 27. Blood was also sampled at sacrifice for the determination of plasma glucose, insulin and triglycerides.

[3] = test system: differentiated 3T3-L1 cells; assay: Inhibition of isoproterenol-induced lipolysis by QRFP, and its antagonism by compounds, in an adipocyte cell line model (glycerol release); assay type: cell-based, mouse; details: for IC50 of QRFP-26 (inhibition of isoproterenol-induced lipolysis), shifted in presence of compound: 100 nM isoproterenol; for effect on the inhibitory effect of QRFP on isoproterenol-induced lipolysis: compound at 10^−9 to 10^−7 M
Protocol: The effectiveness of compounds of the invention to antagonize the QRFP-induced inhibition of isoproterenol-induced lipolysis was investigated using an adipocyte cell line model.
Cells were then were maintained in DMEM with 10% FBS for 2 days before lipolysis study.
All the cellular assays were performed in triplicate for each time point if not otherwise specified.
Differentiated 3T3-L1 cells were first washed with DMEM and incubated with DMEM containing 200 nM adenosine for 1 h at 37° C. The incubation medium was then removed. The lipolysis was induced by incubating the cells with DMEM supplemented with 2% bovine serum albumin fatty acid free and adenosine deaminase (1 U/mL) containing 100 nM of isoproterenol for 90 min at 37° C. The incubation medium (600 μL) was collected for glycerol assay following triglyceride hydrolysis.
After the incubation period, the incubation medium (600 μL) was collected for free glycerol measurement.
To document the antagonistic effect of compounds of the invention on the antilipolytic effect of QRFP, the dose-response curve of QRFP was carried out as described above in presence of selected compounds of the invention at 10^−9 to 10^−7 M. To document the net effect of QRFP and selected compounds of the invention on lipolysis induced by isoproterenol as control, cells were incubated in absence of isoproterenol in presence of QRFP or selected compounds of the invention at 10^−6 M.
Glycerol released was calculated as μmol/mg of total protein.
Lipolysis index was calculated as: (μmol of glycerol released/mg of protein of sample minus μmol of glycerol released/mg of protein in basal condition)/(μmol of glycerol released/mg of protein induced by 100 nM of isoproterenol minus μmol of glycerol released/mg of protein of basal condition).

[4] = test system: male C57BL/6J mice; assay: Fasting-induced feeding behavior (food intake) of mice; assay type: in vivo; details: po
[5] = 20 min, read-out: change of food intake - compounds versus vehicle treated negative control, at 20 min
[6] = 1 h, read-out: change of food intake - compounds versus vehicle treated negative control, at 1 h
[7] = 2 h, read-out: change of food intake - compounds versus vehicle treated negative control, at 2 h
[8] = 4 h, read-out: change of food intake - compounds versus vehicle treated negative control, at 4 h
[9] = 6 mg/kg per day and 24 mg/kg per day

COc1ccc(Cn2c(CCc3ccccc3)nnc2[C@@H](Cc2c[nH]c3ccccc23)NC(=O)CN)cc1 [Compound 50, (R)-N-(1-(4-(4-methoxybenzyl)-5-phenethyl-4H-1,2,4-triazol-3-yl)-2-(1H-indol-3-yl)ethyl)-2-aminoacetamide]
change in vivo at 2 µmol/mouse [1, 5]: -54% | change in vivo at 2 µmol/mouse [1, 6]: -44% | change in vivo at 2 µmol/mouse [1, 7]: -44% | change in vivo at 2 µmol/mouse [1, 8]: -28% | Fat mass ([2]; 1.5 mg/kg per day s.c.): 7.6 g | Food efficiency ([2]; 1.5 mg/kg per day s.c.): 1.88 mg/kJ | Lean mass ([2]; 1.5 mg/kg per day s.c.): 21.3 g | Σ Fat depots ([2]; 1.5 mg/kg per day s.c.): 1101 mg | Body weight gain ([2]; 1.5 mg/kg per day s.c.): 1.61 g | Cumulative food intake ([2]; 1.5 mg/kg per day s.c.): 852 kJ | body weight gain (in words) [2, 9]: significantly decreased | Fat mass ([2]; 6.0 mg/kg per day s.c.): 8.2 g | Food efficiency ([2]; 6.0 mg/kg per day s.c.): 1.77 mg/kJ | Lean mass ([2]; 6.0 mg/kg per day s.c.): 20.4 g | Σ Fat depots ([2]; 6.0 mg/kg per day s.c.): 1192 mg | Body weight gain ([2]; 6.0 mg/kg per day s.c.): 1.44 g | Cumulative food intake ([2]; 6.0 mg/kg per day s.c.): 813 kJ | size of the fat depots (in words) ([2]; 24 mg/kg per day): reduced | Fat mass ([2]; 24 mg/kg per day s.c.): 6.3 g | Food efficiency ([2]; 24 mg/kg per day s.c.): -0.05 mg/kJ | Lean mass ([2]; 24 mg/kg per day s.c.): 20.6 g | Σ Fat depots ([2]; 24 mg/kg per day s.c.): 902 mg | Body weight gain ([2]; 24 mg/kg per day s.c.): -0.04 g | Cumulative food intake ([2]; 24 mg/kg per day s.c.): 801 kJ | Glucose ([2]; 1.5 mg/kg per day s.c.): 15.6 mmol/L | Insulin ([2]; 1.5 mg/kg per day s.c.): 66.3 pmol/L | Glucose ([2]; 6.0 mg/kg per day s.c.): 15.2 mmol/L | Insulin ([2]; 6.0 mg/kg per day s.c.): 64.8 pmol/L | Glucose ([2]; 24 mg/kg per day s.c.): 15.4 mmol/L | Insulin ([2]; 24 mg/kg per day s.c.): 60.3 pmol/L

CC(C)(N)C(=O)N[C@H](Cc1c[nH]c2ccccc12)c1nnc(CCCc2c[nH]c3ccccc23)n1Cc1ccccc1 [Compound 9, (R)-N-(1-(5-(3-(1H-indol-3-yl)propyl)-4-benzyl-4H-1,2,4-triazol-3-yl)-2-(1H-indol-3-yl)ethyl)-2-amino-2-methylpropanamide]
Fat mass ([2]; 1.5 mg/kg per day s.c.): 7.9 g | Food efficiency ([2]; 1.5 mg/kg per day s.c.): 1.30 mg/kJ | Lean mass ([2]; 1.5 mg/kg per day s.c.): 20.2 g | Σ Fat depots ([2]; 1.5 mg/kg per day s.c.): 1137 mg | Body weight gain ([2]; 1.5 mg/kg per day s.c.): 1.03 g | Cumulative food intake ([2]; 1.5 mg/kg per day s.c.): 793 kJ | size of the fat depots (in words) [2, 9]: reduced | body weight gain (in words) [2, 9]: significantly decreased | Fat mass ([2]; 6.0 mg/kg per day s.c.): 5.8 g | Food efficiency ([2]; 6.0 mg/kg per day s.c.): 0.25 mg/kJ | Lean mass ([2]; 6.0 mg/kg per day s.c.): 21.2 g | Σ Fat depots ([2]; 6.0 mg/kg per day s.c.): 791 mg | Body weight gain ([2]; 6.0 mg/kg per day s.c.): 0.20 g | Cumulative food intake ([2]; 6.0 mg/kg per day s.c.): 809 kJ | Fat mass ([2]; 24 mg/kg per day s.c.): 5.7 g | Food efficiency ([2]; 24 mg/kg per day s.c.): -0.68 mg/kJ | Lean mass ([2]; 24 mg/kg per day s.c.): 20.5 g | Σ Fat depots ([2]; 24 mg/kg per day s.c.): 792 mg | Body weight gain ([2]; 24 mg/kg per day s.c.): -0.54 g | Cumulative food intake ([2]; 24 mg/kg per day s.c.): 790 kJ | Glucose ([2]; 1.5 mg/kg per day s.c.): 14.9 mmol/L | Insulin ([2]; 1.5 mg/kg per day s.c.): 63.8 pmol/L | Glucose ([2]; 6.0 mg/kg per day s.c.): 15.6 mmol/L | Insulin ([2]; 6.0 mg/kg per day s.c.): 57.4 pmol/L | Glucose ([2]; 24 mg/kg per day s.c.): 13.1 mmol/L | Insulin ([2]; 24 mg/kg per day s.c.): 52.0 pmol/L

CC(C)(N)C(=O)N[C@H](Cc1c[nH]c2ccccc12)c1nnc(Cc2ccccc2)n1Cc1ccccn1 [Compound 39, (R)-N-(1-(5-benzyl-4-(pyridin-2-ylmethyl)-4H-1,2,4-triazol-3-yl)-2-(1H-indol-3-yl)ethyl)-2-amino-2-methylpropanamide]
IC50 of QRFP-26 (inhibition of isoproterenol-induced lipolysis), shifted in presence of compound ([3]; compound at 10^−7 M): 6.9 nM | IC50 of QRFP-26 (inhibition of isoproterenol-induced lipolysis), shifted in presence of compound ([3]; compound at 10^−8 M): 6.6 nM | IC50 of QRFP-26 (inhibition of isoproterenol-induced lipolysis), shifted in presence of compound ([3]; compound at 10^−9 M): 5.6 nM | effect on the inhibitory effect of QRFP on isoproterenol-induced lipolysis [3]: non-competitive antagonist effect

COc1ccc(Cn2c(CCc3ccccc3)nnc2[C@@H](Cc2c[nH]c3ccccc23)NC(=O)c2ccccn2)cc1 [Compound 79, (R)-N-(1-(4-(4-methoxybenzyl)-5-phenethyl-4H-1,2,4-triazol-3-yl)-2-(1H-indol-3-yl)ethyl)picolinamide]
IC50 of QRFP-26 (inhibition of isoproterenol-induced lipolysis), shifted in presence of compound ([3]; compound at 10^−7 M): 124.4 nM | IC50 of QRFP-26 (inhibition of isoproterenol-induced lipolysis), shifted in presence of compound ([3]; compound at 10^−9 M): 2.829 nM | effect on the inhibitory effect of QRFP on isoproterenol-induced lipolysis [3]: antagonist effect

CC(C)CC(N(C)C)C1(c2ccc(Cl)cc2)CCC1 (stereo not drawn) [Sibutramine, 1-(4-chlorophenyl)-N,N-dimethyl-alpha-(2-methylpropyl)-cyclobutane-methanamine]
change in vivo at 0.6 µmol/mouse [4, 5]: -63% | change in vivo at 0.6 µmol/mouse [4, 6]: -66% | change in vivo at 0.6 µmol/mouse [4, 7]: -46% | change in vivo at 0.6 µmol/mouse [4, 8]: -21%
